Results reported in patent US20160000849A1, “COMPOSITION FOR REMEDYING OR TREATING RHEUMATOID ARTHRITIS AND OSTEOARTHRITIS” (HANPOONG PHARM & FOODS CO., LTD., priority 2013, published 2016).

Test system: normal 293T cells, rat chondrocytes and human chondrocytes (HTB-94)
Protocol: The stabilities of glucosamine-HCl, glucosamine-sulfate, celecoxib and HPL-1 were analyzed by an MTT assay using normal 293T cells, rat chondrocytes and human chondrocytes (HTB-94).

SMILES	cytotoxicity	concentration at which cytotoxicity was observed (human, rat)
N[C@H]1C(O)O[C@H](CO)[C@@H](O)[C@@H]1O.O=S(=O)(O)O (stereo partly drawn) [glucosamine-sulfate]	no cytotoxicity was observed	–
Cc1ccc(-c2cc(C(F)(F)F)nn2-c2ccc(S(N)(=O)=O)cc2)cc1 [celecoxib]	–	≥ 10000 ng/mL
Cl.N[C@H]1C(O)O[C@H](CO)[C@@H](O)[C@@H]1O (stereo partly drawn) [glucosamine-HCl]	no cytotoxicity was observed	–
